Reference: patent publication US7704991B2, “Substituted diazabicyclo derivatives and their use as monoamine neurotransmitter re-uptake inhibitors” (Neurosearch A/S, priority 2005, dated 2010)
Structures can show the parent of a compound that is named as a salt. Where two headings read alike, the source gives them in different places.

Legend:
[1] = target: T1, dopamine (DA) reuptake in synaptosomes (Rattus norvegicus, UniProt P23977); test: In vitro inhibition of dopamine (DA) reuptake in synaptosomes; assay type: biochemical
T1 construct: in synaptosomes as described in WO 97/16451; from tissue

[2] = target: T2, noradrenaline (NA) reuptake in synaptosomes (Rattus norvegicus, UniProt Q63380); test: In vitro inhibition of noradrenaline (NA) reuptake in synaptosomes; assay type: biochemical
T2 construct: in synaptosomes as described in WO 97/16451; from tissue

[3] = target: T3, serotonine (5-HT) reuptake in synaptosomes (Rattus norvegicus, UniProt P31652); test: In vitro inhibition of serotonine (5-HT) reuptake in synaptosomes; assay type: biochemical
T3 construct: in synaptosomes as described in WO 97/16451; from tissue
Procedure: A number of compounds were tested for their ability to inhibit the reuptake of the monoamine neurotransmitters dopamine (DA) noradrenaline (NA) and serotonine (5-HT) in synaptosomes as described in WO 97/16451.
The test values are given as IC50 (the concentration (μM) of the test substance which inhibits the specific binding of ^3H-DA, ^3H-NA, or ^3H-5-HT by 50%).

[4] = synaptosomes, 3H-DA, read-out: DA-uptake IC50
[5] = synaptosomes, 3H-NA, read-out: NA-uptake IC50

T2 sequence (Q63380 1-617): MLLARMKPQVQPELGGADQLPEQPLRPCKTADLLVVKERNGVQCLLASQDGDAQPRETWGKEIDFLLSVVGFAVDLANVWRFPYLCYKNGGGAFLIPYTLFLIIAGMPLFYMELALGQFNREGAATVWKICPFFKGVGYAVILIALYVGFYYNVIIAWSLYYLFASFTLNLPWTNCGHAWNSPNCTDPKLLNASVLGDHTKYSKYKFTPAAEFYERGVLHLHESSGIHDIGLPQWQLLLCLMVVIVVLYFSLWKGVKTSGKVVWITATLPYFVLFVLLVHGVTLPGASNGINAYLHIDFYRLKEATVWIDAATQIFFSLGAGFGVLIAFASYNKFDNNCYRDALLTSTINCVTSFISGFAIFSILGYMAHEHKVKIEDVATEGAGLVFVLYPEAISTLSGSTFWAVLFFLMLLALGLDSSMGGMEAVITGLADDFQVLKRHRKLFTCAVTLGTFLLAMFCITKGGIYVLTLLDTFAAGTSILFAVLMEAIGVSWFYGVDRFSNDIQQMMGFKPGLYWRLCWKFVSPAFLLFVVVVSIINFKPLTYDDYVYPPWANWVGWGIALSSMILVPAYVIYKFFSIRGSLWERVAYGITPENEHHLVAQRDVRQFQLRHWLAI
T3 sequence (P31652 whole entry): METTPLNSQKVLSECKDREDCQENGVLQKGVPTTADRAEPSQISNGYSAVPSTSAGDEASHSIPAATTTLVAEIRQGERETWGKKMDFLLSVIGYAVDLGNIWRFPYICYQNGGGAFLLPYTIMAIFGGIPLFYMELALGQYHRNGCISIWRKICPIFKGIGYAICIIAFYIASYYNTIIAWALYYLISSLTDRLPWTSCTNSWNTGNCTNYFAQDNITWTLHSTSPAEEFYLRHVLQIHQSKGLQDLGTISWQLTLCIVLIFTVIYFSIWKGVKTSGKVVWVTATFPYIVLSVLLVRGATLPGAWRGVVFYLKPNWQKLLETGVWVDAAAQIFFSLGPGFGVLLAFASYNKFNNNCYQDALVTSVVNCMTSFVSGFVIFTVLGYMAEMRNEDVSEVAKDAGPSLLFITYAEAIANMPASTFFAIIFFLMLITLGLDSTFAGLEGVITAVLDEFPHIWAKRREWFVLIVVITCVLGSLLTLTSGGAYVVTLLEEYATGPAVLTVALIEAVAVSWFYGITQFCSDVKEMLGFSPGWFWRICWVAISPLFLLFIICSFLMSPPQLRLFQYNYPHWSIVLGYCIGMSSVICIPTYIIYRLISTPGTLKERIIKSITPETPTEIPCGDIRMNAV
T1 sequence (P23977 whole entry): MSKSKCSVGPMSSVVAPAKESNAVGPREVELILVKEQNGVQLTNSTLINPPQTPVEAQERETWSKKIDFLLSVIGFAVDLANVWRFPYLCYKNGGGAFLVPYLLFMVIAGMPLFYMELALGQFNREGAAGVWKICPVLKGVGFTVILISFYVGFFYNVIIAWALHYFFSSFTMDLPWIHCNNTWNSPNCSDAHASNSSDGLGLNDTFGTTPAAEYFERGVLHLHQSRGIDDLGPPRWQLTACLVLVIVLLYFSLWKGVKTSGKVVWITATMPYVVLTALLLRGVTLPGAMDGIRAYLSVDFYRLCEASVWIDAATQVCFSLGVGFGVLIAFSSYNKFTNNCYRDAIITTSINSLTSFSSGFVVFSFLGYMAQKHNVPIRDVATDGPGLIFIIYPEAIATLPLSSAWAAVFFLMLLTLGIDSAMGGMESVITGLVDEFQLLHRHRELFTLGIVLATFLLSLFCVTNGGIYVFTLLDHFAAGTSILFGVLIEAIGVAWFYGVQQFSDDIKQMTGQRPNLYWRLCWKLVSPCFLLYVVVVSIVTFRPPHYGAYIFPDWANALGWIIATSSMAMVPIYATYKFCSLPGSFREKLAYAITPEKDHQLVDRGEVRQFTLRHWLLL

COc1ccc2cc(N3CC4CCC(C3)N4C)ccc2c1 (as salt: fumaric acid salt) [1st compound of method B, 3-(6-Methoxy-naphthalen-2-yl)-8-methyl-3,8-diaza-bicyclo[3.2.1]octane]
melting point: 204 to 206 °C

CN1C2CCC1CN(c1ccc3ccccc3n1)C2 (as salt: fumaric acid salt) [2nd compound of method A, 2-(8-Methyl-3,8-diaza-bicyclo[3.2.1]oct-3-yl)-quinoline]
melting point: 210 to 212 °C

CN1C2CCC1CN(c1ccc3cc([N+](=O)[O-])ccc3n1)C2 [1st compound of method A, 2-(8-Methyl-3,8-diaza-bicyclo[3.2.1]oct-3-yl)-6-nitro-quinoline]
IC50 [1, 4]: 16000 nM
IC50 [2, 5]: 4600 nM
IC50 [3]: 3.1 nM
melting point: 152.1 to 154.5 °C

COc1ccc2cc(N3CC4CCC(C3)N4C)ccc2c1 [1st compound of method B, 3-(6-Methoxy-naphthalen-2-yl)-8-methyl-3,8-diaza-bicyclo[3.2.1]octane]
IC50 [1]: 56 nM
IC50 [2]: 20 nM
IC50 ([3]; synaptosomes, 3H-5-HT, read-out: 5-HT-uptake IC50): 20 nM

CN1C2CCC1CN(c1ccc3ccccc3n1)C2 [2nd compound of method A, 2-(8-Methyl-3,8-diaza-bicyclo[3.2.1]oct-3-yl)-quinoline]
IC50 [1, 4]: 1600 nM
IC50 [2, 5]: 450 nM
IC50 [3]: 16 nM
